Article PMC3236199, “Development of Derivatives of 3, 3′-Diindolylmethane as Potent Leishmania donovani Bi-Subunit Topoisomerase IB Poisons” (PLoS ONE, 2011)
pIC50, pKd: −log10 of the molar value.

Assays:
[1] = system: L. donovani topoisomerase II; assay: Immunoband depletion assay, topoisomerase II; assay type: cell-based, Leishmania donovani; details: 50 µM, antibody against ATPase domain of topoisomerase II
Method: Leishmania cells (3×10^7) were cultured in absence and presence of the drugs. Nuclear fractions were isolated as described. Briefly, cells were suspended in hypotonic buffer (10 mM Tris-HCl, pH 7.5, 1 mM EDTA, 0.1 mM EGTA, 1 mM PMSF, 1 mM benzamidine hydrochloride and 5 mM DTT) and homogenized. The homogenate was centrifuged for 10 min at 10,000 g. The pellets were washed and used as the source of nuclear fraction. Thereafter, the nuclear fractions were lysed with 1% SDS and subjected to SDS-PAGE (10%). The proteins were electrophoretically transferred to nitrocellulose membranes and immumobloting of immobilized proteins were carried out using a rabbit polyclonal antibody raised against LdTOP1S for topoisomerase I and ATPase domain of L. donovani topoisomerase II [8].
To rule out the topoisomerase II mediated cleavable complex stabilization by the derivatives, we have carried out immunoband depletion assay with antibody raised against ATPase domain (43 kDa) of L. donovani topoisomerase II.
Supplementary file pone.0028493.s001.tif: Figure S1 Stabilization of topoisomerase-II mediated cleavable complex was determined by immunoband depletion assay. Immunoband depletion of L. donovani topoisomerase II, using an antibody raised against LdTOP2 (ATPase domain, 43 kDa). […]

[2] = system: F270L mutant topoisomerase I; details: cited from earlier work
[3] = target: CT DNA; parameters: method as in PMID 17922678; details: interaction with DNA; read-out: dissociation constant (KD); cited from earlier work
[4] = system: DIM resistant DR50 promastigotes; assay: Change in IC50 on prolonged exposure of DIM resistant promastigotes; assay type: cell-based; details: Leishmania donovani
Method: L. donovani strain AG83 and DIM resistant parasite DR50 promastigotes were grown at 22°C in M199 liquid media supplemented with 10% FBS as described. Axenic amastigotes were cultured in modified M199 medium (pH 5.3) supplemented with 10 mM sodium succinate, 40 mM HEPES and 25% FCS and maintained at 37°C with 5% CO2.The effect of drugs on the viability of Leishmania parasites was determined by direct microscopic counting using light microscope (40× objective) in a haemocytometer. The cells at the exponential phase were collected and transferred into 24-well plate (3.5×10^6 cells per well). The cells were then incubated for 12 h in the presence of various concentrations of DIM, DPDIM, DMDIM and DMODIM (1, 5, 10, 20 and 50 µM). For other experiments, 10^4 cells were taken and grown in presence of the respective derivatives for a period of 30 days. For each 5 day interval, a small amount of aliquots were taken out. After incubation the cells were centrifuged and cell pellet was washed with PBS (1×) twice and finally suspended in 1 ml PBS (1×). […] One drop of the mixture was transferred to haemocytometer and the clear (live) and blue (dead) cells were counted. The total number of viable cells in aliquot was calculated by multiplying the total number of viable cells by 2 (the dilution factor for trypan blue). […] Percentages of viable cells were calculated using the formula: [drawing 1]
Figure 2 Effect of DIM-derivatives on Leishmania parasites. Growth of L. donovani AG83 promastigotes (A) and DIM resistant promastigotes (B) were monitored in presence of increasing concentrations (1, 5, 10, 20 and 50 µM) of DIM, DPDIM, DMDIM and DMODIM for 12 h. […] Change in IC50 values after a prolong exposure to DIM derivatives (C) has been assessed as described in Materials and Methods. After every 5 day a small aliquot was taken out and number of viable promastigotes was counted for each concentration. IC50 values have been determined from them using Graph Pad Prsim ver 5.0 software and a graphical plot was generated over time. […]

c1ccc2c(Cc3c[nH]c4ccccc34)c[nH]c2c1 [DIM, 3, 3′-diindolyl methane, reference compound]
stabilization of topoisomerase II mediated cleavage complex [1]: do not stabilize cleavage complex formation
sensitivity of F270L topoisomerase I mutant [2]: insensitive
pKd [3]: 4.66

COc1ccc2[nH]cc(Cc3c[nH]c4ccc(OC)cc34)c2c1 [DMODIM, 5,5′-dimethoxy 3,3′-diindolyl methane]
pIC50 ([4]; 24 h): 5.14

c1ccc(-c2[nH]c3ccccc3c2Cc2c(-c3ccccc3)[nH]c3ccccc23)cc1 [DPDIM, 2,2′-diphenyl 3,3′-diindolyl methane]
pIC50 [4]: 7.30
pIC50 ([4]; 24 h): 5.64
